The text below walks through data of patent US4530907A, “Perfusion-cultivation of animal cells and equipment therefor” (priority 1981, dated 1985).

Structures are written as SMILES.

The first data set deals with neuroblastoma cells.
Details: not given
The source says: The test system in question is based on cultivation of neuroblastoma cells C1300, 41A3 and the effect on these cells measured as general biological cell changes or biochemical changes, as a function of the content of toxic substances in the substrate. The cell line used is suitable for such measurements since its biology and biochemistry is well documented.
Examples of other parameters which can be used are ATP (adenosine triphosphate) content and LDH (lactate dehydrogenase) activity in the perfusion liquid. These function as indicators of membrane leakage and their concentration can be expected to increase after exposure. Another way of measuring membrane leakage is to study the outflow of an isotope-marked marker (see Example 5). It is also possible to measure the absorption of trypan blue in dead cells with the help of light absorption (see Example 4 and FIG. 4).
Determining LD50 values by means of cell death, measured as absorption of trypan blue
The accumulation of trypan blue (a stain which is taken up in dead cells) can be calculated with the help of light-absorption measurements.
`c1ccccc1` [benzene]: the “cell death in neuroblastoma cells, correlation with the LD50 values obtained from animal experiments” value (“cell death in neuroblastoma cells” below) was “correlates well”.

Staying with this data set, now noted: trypan blue absorption by light absorption; statement for all listed substances together.
On to `[CH3][Hg][Cl]` [CH3 HgCl], for which the “cell death in neuroblastoma cells” value is “correlates well”.

For `[Cl][Cd][Cl]` [CdCl2], the “cell death in neuroblastoma cells” value is recorded as “correlates well”.

Regarding `[Cl][Hg][Cl]` [HgCl2], the “cell death in neuroblastoma cells” value is “correlates well”.

Consider `[K+].[K+].[O]=[Cr](=[O])([O-])[O][Cr](=[O])(=[O])[O-]` [K2 Cr2 O7], for which the “cell death in neuroblastoma cells” value is listed as “correlates well”.

`CC(C)=O` [acetone]: the “cell death in neuroblastoma cells” value is reported as “correlates well”.

With `C1COCCO1` [dioxane], the “cell death in neuroblastoma cells” value is recorded as “correlates well”.

For `CCCCO` [n-butanol], the “cell death in neuroblastoma cells” value is listed as “correlates well”.

As for `CCCO` [n-propanol], the “cell death in neuroblastoma cells” value was “correlates well”.

Consider `Clc1ccc(C(c2ccc(Cl)cc2)C(Cl)(Cl)Cl)cc1` [pp-DDT], for which the “cell death in neuroblastoma cells” value is on record as “correlates well”.
